Experimental data from PMC3964211, “Pharmacokinetic modeling optimizes inhibition of the ‘undruggable’ EWS-FLI1 transcription factor in Ewing Sarcoma” (Oncotarget, 2013).

Key:
[1] = Pharmacokinetics in SD rats, single IV injection; type: in vivo, Sprague-Dawly (SD) rats; details: for AUClast / AUC∞ / Clearance / Observed Cmax / Terminal Elimination Half-Life: analyte (S)-YK-4-279 in plasma
Method: (§1) To optimize dosing in animals, we determined the pharmacokinetics of YK-4-279 and its single enantiomers in Sprague-Dawly (SD) rats. Three rats of each gender were assigned to nine dose groups. Animals in Groups 1 through 3 received a single intravenous (IV) injection of racemic mixture, (S)-YK-4-279, or (R)-YK-4-279 at a dose of 25 mg/kg. Animals in Groups 4 through 9 received a single oral gavage administration of racemic mixture, (S)-YK-4-279, or (R)-YK-4-279 at a dosage level of 25 or 50 mg/kg. […] However, given that approximately 50 percent of the racemic mixture is (S)-YK-4-279 and the clearance […] the dose, the IV clearance of (S)-YK-4-279 is considered to be similar whether a racemic mixture or only (S)-YK-4-279 is administered. Systemic exposure to (S)-YK-4-279 was evaluated using Cmax and AUC values. Cmax and AUC8 values were similar between males and females for a given dose group. With an expected enantiomer ratio of 1:1 in the racemic dose, Group 2 animals would have received a 2-fold higher dose of (S)-YK-4-279 than Group 1 animals. […] Absolute bioavailability of (S)-YK-4-279 following gavage administration, using cremophor/ethanol as an excipient, in SD rats was only 2–6% (Table 2).
(§2) Nine SD rats of each gender were assigned to nine dose groups. Groups 1 through 3 received a single IV injection of racemic mixture, (S)-YK-4-279, or (R)-YK-4-279 at a dose of 25 mg/kg. Groups 4 through 9 received a single gavage administration of racemic mixture, (S)-YK-4-279, or (R)-YK-4-279 at a dosage level of 25 or 50 mg/kg. Blood samples were collected from one animal per group per time point at target time points of pre-dose, 5, 15, 30 and 60 minutes, and 2, 4, 8 and 12 hours following dosing. Plasma was obtained from the samples and analyzed for (S) and (R)-YK-4-279 concentrations.
(§3) The plasma and tumor sample analysis was performed using calibration standards and Quality Control (QC) samples prepared in control rat or mouse plasma and tumor tissues. Plasma and tumor calibration standards were prepared from stock solutions of YK-4-279. The calibration standards, blanks, QC samples, and study samples were then processed by solid-liquid extraction (SLE) followed by analysis using liquid chromatography with mass spectrometry (LC-MS). The LC-MS systems used for the analysis of YK-4-279 was composed of Shimadzo prominence pump and auto-sampler (Kyoto, Japan), a Sciex API 5000 MS (Toronto, Ontario), with turbo ion spary in the positive ion mode. The samples for the analysis of total YK-4-279 were injected into a 50 × 2 mm Gemini- NX, 5 ¼m column (Phenomenex, Torrance, CA). The samples for the analysis of the specific enantiomers of YK-4-279 were injected into a 150 × 2 mm Lux Cellulose-2, 3 ¼m Phenomenex column. The transitions monitored were 366 amu to 135 amu for YK-4-279 and 369 amu to 138 amu for the YK-4-279-d3 internal standard. YK-4-279 concentrations were calculated using peak area response ratios and a regression equation constructed from the concentrations and peak area response ratios of the calibration standards. The lower limit of quantitation was 5.0 ng/mL in plasma and […] in tumor tissue. The concentration-time profiles were evaluated by compartmental modeling and non-compartmental analysis using WinNonlin (Pharsight Corporation, Mountain View, CA). The PK parameters obtained from the compartmental modeling were used in simulations to identify optimal dose level and dosing schedule for maintaining plasma concentration of (S)-YK-4-279 above 3 ¼M.

[2] = Pharmacokinetics in SD rats, single oral gavage; type: in vivo, Sprague-Dawly (SD) rats; details: analyte (S)-YK-4-279 in plasma
Method: as §1, §2, §3

[3] = SD rats, female (n=9), single IV injection 25 mg/kg
[4] = SD rats, male (n=9), single IV injection 25 mg/kg
[5] = female (n=9), oral gavage 25 mg/kg
[6] = female (n=9), oral gavage 50 mg/kg
[7] = male (n=9), oral gavage 25 mg/kg
[8] = male (n=9), oral gavage 50 mg/kg
[9] = SD rats, single IV injection 25 mg/kg, average of males and females, analyte (S)-YK-4-279

Row | SMILES | AUClast [1, 3] | AUC∞ [1, 3] | Clearance [1, 3] | Observed Cmax [1, 3] | Terminal Elimination Half-Life [1, 3] | AUClast [1, 4] | AUC∞ [1, 4] | Clearance [1, 4] | Observed Cmax [1, 4] | Terminal Elimination Half-Life [1, 4] | AUClast [2, 5] | AUC∞ [2, 5] | Absolute Bioavailability [2, 5] | Apparent Clearance [2, 5] | Observed Cmax [2, 5] | Observed Tmax [2, 5] | Terminal Elimination Half-Life [2, 5] | AUClast [2, 6] | AUC∞ [2, 6] | Absolute Bioavailability [2, 6] | further results
1 | COc1ccc(C(=O)C[C@]2(O)C(=O)Nc3c(Cl)ccc(Cl)c32)cc1 [(R)-YK-4-279] | BLOQ | BLOQ | BLOQ | BLOQ | BLOQ | BLOQ | BLOQ | BLOQ | BLOQ1 | BLOQ | BLOQ | BLOQ | BLOQ | BLOQ | BLOQ | BLOQ | BLOQ | BLOQ | BLOQ | BLOQ | Clearance slower than the clearance of (S)-YK-4-279 ([1]; SD rats (Supplemental table 1, not available)): approximately 25%; Apparent Clearance [2, 6]: BLOQ; Observed Cmax [2, 6]: BLOQ; Observed Tmax [2, 6]: BLOQ; Terminal Elimination Half-Life [2, 6]: BLOQ; AUClast [2, 7]: BLOQ; AUC∞ [2, 7]: BLOQ; Absolute Bioavailability [2, 7]: BLOQ; Apparent Clearance [2, 7]: BLOQ; Observed Cmax [2, 7]: BLOQ1; Observed Tmax [2, 7]: BLOQ; Terminal Elimination Half-Life [2, 7]: BLOQ; AUClast [2, 8]: BLOQ; AUC∞ [2, 8]: BLOQ; Absolute Bioavailability [2, 8]: BLOQ; Apparent Clearance [2, 8]: BLOQ; Observed Cmax [2, 8]: BLOQ; Observed Tmax [2, 8]: BLOQ; Terminal Elimination Half-Life [2, 8]: BLOQ
2 | COc1ccc(C(=O)CC2(O)C(=O)Nc3c(Cl)ccc(Cl)c32)cc1 (stereo not shown) [YK-4-279] | 25.6 hr*¼M | 25.9 hr*¼M | 44 mL/min/kg | 37.1 ¼M | 0.602 h | 26.5 hr*¼M | 26.7 hr*¼M | 42.67 mL/min/kg | 39.9 ¼M | 0.564 h | 1.07 hr*¼M | 1.31 hr*¼M | 5.06% | 52,200 mL/hr/kg | 0.513 ¼M | 0.500 h | 1.56 h | 3.09 hr*¼M | 3.14 hr*¼M | 6.07% | Average clearance [1, 9]: 43.33 mL/min/kg; Average elimination half-life [1, 9]: 0.583 h; Apparent Clearance [2, 6]: 43,400 mL/hr/kg; Observed Cmax [2, 6]: 0.647 ¼M; Observed Tmax [2, 6]: 0.500 h; Terminal Elimination Half-Life [2, 6]: 1.97 h; AUClast [2, 7]: 0.563 hr*¼M; AUC∞ [2, 7]: 0.754 hr*¼M; Absolute Bioavailability [2, 7]: 2.83%; Apparent Clearance [2, 7]: 90,300 mL/hr/kg; Observed Cmax [2, 7]: 0.142 ¼M; Observed Tmax [2, 7]: 1.00 h; Terminal Elimination Half-Life [2, 7]: 3.84 h; AUClast [2, 8]: 1.04 hr*¼M; AUC∞ [2, 8]: 1.18 hr*¼M; Absolute Bioavailability [2, 8]: 2.21%; Apparent Clearance [2, 8]: 116,000 mL/hr/kg; Observed Cmax [2, 8]: 0.241 ¼M; Observed Tmax [2, 8]: 2.00 h; Terminal Elimination Half-Life [2, 8]: 4.23 h
